Assay results: patent US20090286802A1, “High Dose Folic Acid Compositions for Vascular Dysfunction” (priority 2005, published 2009)
Where “and” joins values, the source holds several entries; their conditions need not be identical. Equal values may be shown once.

How the values were obtained:
[1] = test system: patients with ischemic heart disease; assay: Hemodynamic variables (HR, RPP, blood pressure) at rest and during adenosine, double-blind placebo-controlled crossover study; type: in vivo, human; settings: for HR / DBP (diastolic blood pressure) / MAP (mean arterial blood pressure) / RPP (rate pressure product, SAP × HR) / SAP (systolic blood pressure): folate 30 mg oral, mean ± SD
Experimental: (§1) 14 patients with ischemic heart disease, age 62±12yr. (mean±SD), were enrolled in a double-blind, placebo controlled crossover trial. Basal and adenosine-stimulated myocardial blood flow (MBF) were determined by PET and myocardial flow reserve was calculated. Each patient was studied after ingestion of placebo and after ingestion of 30 mg folic acid. Myocardial zones were prospectively defined physiologically as “NORMAL” vs “ABNORMAL” based on MBF response to Ado 140 (NORMAL=MBF>1.65 ml/min/g). ABNORMAL and NORMAL zones were analyzed separately in a patient based analysis.
Patient Population: Adult male and female patients with coronary artery disease and normal serum homocysteine concentration (HCY<12 μM) were recruited from the greater Boston area. Coronary artery disease was defined as the presence of a >50% stenosis in at least one coronary artery identified by coronary arteriography within the last 5 years. Exclusion criteria included: inability to maintain a stable medical regimen during the study period, concurrent use of folic acid, or myocardial infarction or coronary intervention within the proceeding 3 months. The study protocol was approved by the local Human Research Committee and informed consent was obtained from each subject.
(§2) Study Drug Administration. Subjects were enrolled in a double-blinded, placebo-controlled, crossover study during which folate syrup (30 mg) or similar tasting placebo syrup was administered orally in two divided doses, 10-12 hours and 1 hour prior to MBF measurements. […] Folate and placebo were administered at least one week apart, in random order, and in a double-blinded manner.
(§3) Myocardial Blood Flow Measurements. Vasoactive medications were withheld for 3-5 half-lives, and subjects were asked to avoid caffeinated beverages for 24 h before blood flow measurements. MBF was assessed with PET (GE Medical Systems Scanditronix PC4096), approximately 1-hr after ingestion of the second dose of the study drug. PET measurements of MBF (^13N-ammonia method) were performed at rest and during the infusion of two doses of adenosine (70 and 140 mcg/kg/min), using a previously described method (Huggins, G. S., et al., Circulation 1998; 98:1291-6).
Statistical Analysis. Data are expressed as mean±SD. A repeated measures ANOVA was performed, (Statview v 4.0, Abacus Concepts), with terms for the order of folate vs. placebo administration, patient, and observations (blood pressure, MBF and G) for the three repeated measurements (adenosine 0, 70, and 140). To control for multiple testing, prospectively defined pair-wise t-tests comparing folate to placebo at each of the three adenosine doses were performed only if there was a significant main effect for folate or a significant interaction of folate with adenosine in the ANOVA analysis. Values of P<0.05 were considered significant.

[2] = test system: patients with ischemic heart disease; assay: Myocardial blood flow (MBF) by PET (13N-ammonia) at rest and during adenosine, folate crossover study; type: in vivo, human; settings: for effect on myocardial blood flow in NORMAL regions: folate vs. placebo
Experimental: as §1, §2, §3
PET Image Analysis: Three short axis rings corresponding to the proximal, middle and distal thirds of the left ventricle were constructed for each K1 scan and MBF was measured within 24 standard areas of interest as described previously (Huggins, G. S., et al., Circulation 1998; 98:1291-6). Data analysis was performed without knowledge of treatment order. To determine the variability of the MBF measurement, two readers independently assessed adenosine-stimulated MBF in 120 segments in 5 subjects and the difference between and within readers was calculated. The mean (±SD) intra-, and inter-observer difference was 0.03±0.10 and 0.03±0.17 ml/min/gm, respectively.
Prospective Definition of Myocardial Zones. MBF in regions supplied by stenotic conduit vessels, which were expected to have abnormal dilator capacity, were prospectively examined separately from regions with normal dilator capacity. […] Accordingly, myocardial zones were defined physiologically as “NORMAL” vs. “ABNORMAL” based on MBF response to Ado 140 during the placebo condition. Myocardial zones with MBF with Ado 140 of <1.65 ml/min/g during placebo condition were defined as ABNORMAL. The corresponding myocardial regions were identified during the folate condition, and were labeled ABNORMAL regardless of their MBF during the folate condition. Values for ABNORMAL MBF were combined and averaged to obtain a single value of ABNORMAL blood flow for each patient at each condition, (placebo and folic acid) for each scan acquisition (rest, adenosine 70, or adenosine 140). A patient-based analysis of MBF was performed.
Dilator reserve for both NORMAL and ABNORMAL zones was defined as the difference between peak MBF and rest MBF. Peak MBF was defined as the higher of the two average MBF values obtained during adenosine (i.e, the greater of the average MBF obtained during adenosine 70 vs. adenosine 140 dose). This was done, since in patients with IHD, coronary “steal” may occur (Holmvang, G., et al., Circulation 1999; 99:2510-6). and so cause underestimation of dilator reserve in ABNORMAL regions.

[3] = oral administration; cited from earlier work
[4] = test system: patients with stable chronic ischemic heart disease; assay: Myocardial blood flow by PET (13N-ammonia), sildenafil crossover study; type: in vivo, human; settings: for Myocardial Blood Flow: abnormal zones, sildenafil 100 mg given ~2-3 hrs before, mean ± SD
Experimental: The effects of sildenafil on myocardial blood flow were assessed. The chemical name for sildenafil is 5-[2-ethoxy-5(-4-methyl piperazine-1-ylsulfonyl)phenyl]-1-methyl-3-propyl-1,6-dihydro-7H-pyrazolo[4,3-d]pyrimidin-7-one. A study design similar to that used to test the effects of folate as described herein was used. In brief, myocardial blood flow (MBF) was measured in 14 patients with stable chronic ischemic heart disease using positron emission tomography with ^13N-ammonia. Patients were studied in double blind, placebo control, cross-over design with 100 mg sildenafil (or placebo) given ˜2-3 hrs prior to measurements of hemodynamics and myocardial blood flow at rest and during administration of adenosine at (140 μg/kg/min). Sildenafil improved myocardial blood flow in abnormal zones (Table 4). Also shown are data of the effect of folate (30 mg) on myocardial blood flow.

[5] = Ado 70, folate 30 mg oral, mean ± SD
[6] = Ado 140, folate 30 mg oral, mean ± SD
[7] = Peak, folate 30 mg oral, mean ± SD
[8] = Rest, folate 30 mg oral, mean ± SD
[9] = folate 30 mg oral, mean ± SD, listed as folate

Which results are given for `Nc1nc2ncc(CNc3ccc(C(=O)N[C@@H](CCC(=O)O)C(=O)O)cc3)nc2c(=O)[nH]1` [Folate, N[4-[[(2-amino-1,4-dihydro-4-oxo-6-pteridinyl)methyl]amino]benzoyl]-L-glutamic acid]?
HR ([1]; Ado 70 (adenosine 70 μg/kg/min)): 70 ± 14 bpm; DBP (diastolic blood pressure) ([1]; Ado 70): 68 ± 11 mmHg; MAP (mean arterial blood pressure) ([1]; Ado 70): 95 ± 13 mmHg; RPP (rate pressure product, SAP × HR) ([1]; Ado 70): 8604 ± 2484 mmHg × bpm; SAP (systolic blood pressure) ([1]; Ado 70): 123 ± 18 mmHg; HR ([1]; Ado 140 (adenosine 140 μg/kg/min)): 82 ± 15 bpm; DBP (diastolic blood pressure) ([1]; Ado 140): 69 ± 10 mmHg; MAP (mean arterial blood pressure) ([1]; Ado 140): 95 ± 15 mmHg; RPP (rate pressure product, SAP × HR) ([1]; Ado 140): 9998 ± 3066 mmHg × bpm; SAP (systolic blood pressure) ([1]; Ado 140): 120 ± 21 mmHg; DBP (diastolic blood pressure) ([1]; Rest): 70 ± 9 mmHg; HR ([1]; Rest): 61 ± 8 bpm; MAP (mean arterial blood pressure) ([1]; Rest): 96±11 mmHg and 96±2 mmHg; RPP (rate pressure product, SAP × HR) ([1]; Rest): 7483 ± 1798 mmHg × bpm; SAP (systolic blood pressure) ([1]; Rest): 121 ± 15 mmHg; reduction in diastolic blood pressure ([1]; folate 30 mg vs. placebo): 5 mm Hg; change in HR ([1]; folate vs. placebo): no significant change; change in RPP ([1]; folate vs. placebo): no significant change; effect on systolic, diastolic and mean arterial blood pressures ([1]; folate vs. placebo, P<0.01 ANOVA): significant reduction; patients with significant reduction in blood pressure after high-dose folate ([1]; without changes in homocysteine concentration): 11/14; Myocardial Blood Flow, ABNORMAL zones [2, 5]: 1.60 ± 1.15 ml/min/gm; Myocardial Blood Flow, NORMAL zones [2, 5]: 2.01 ± 0.88 ml/min/gm; Ratio ABN:WNL (ABNORMAL/NORMAL zone MBF) [2, 5]: 0.84 ± 0.37; Myocardial Blood Flow, ABNORMAL zones [2, 6]: 1.76 ± 0.75 ml/min/gm; Myocardial Blood Flow, NORMAL zones [2, 6]: 2.72 ± 0.74 ml/min/gm; Ratio ABN:WNL (ABNORMAL/NORMAL zone MBF) [2, 6]: 0.67 ± 0.21; Myocardial Blood Flow, ABNORMAL zones ([2]; Peak (adenosine-stimulated), folate 30 mg oral, mean ± SD): 2.16±1.01 ml/min/gm; Myocardial Blood Flow, ABNORMAL zones ([2]; Peak (adenosine-stimulated), folate 30 mg oral, mean ± SD, listed as folic acid): 2.16±1.01 ml/min/gm; Myocardial Blood Flow, NORMAL zones [2, 7]: 2.86 ± 0.67 ml/min/gm; Ratio ABN:WNL (ABNORMAL/NORMAL zone MBF) [2, 7]: 0.75±0.24; Myocardial Blood Flow, ABNORMAL zones [2, 8]: 0.74 ± 0.27 ml/min/gm; Myocardial Blood Flow, NORMAL zones [2, 8]: 0.81 ± 0.19 ml/min/gm; Ratio ABN:WNL (ABNORMAL/NORMAL zone MBF) [2, 8]: 0.95 ± 0.17; patients in whom flow reserve increased in ABNORMAL zones relative to NORMAL zones ([2]; after folate): 83 % of patients; patients in whom peak MBF increased in ABNORMAL zones relative to NORMAL zones ([2]; after folate): 85 % of patients; Dilator Reserve (peak MBF minus rest MBF), ABNORMAL ([2]; folate 30 mg oral, mean ± SD): 1.41 ± 1.08 ml/min/gm; Dilator Reserve (peak MBF minus rest MBF), NORMAL ([2]; folate 30 mg oral, mean ± SD): 2.12±0.69 ml/min/gm; Dilator Reserve, Ratio ABN:WNL ([2]; folate 30 mg oral, mean ± SD): 0.63 ± 0.36; Dilator Reserve (peak MBF minus rest MBF), ABNORMAL [2, 9]: 1.41±1.08 ml/min/gm; Dilator Reserve (peak MBF minus rest MBF), NORMAL [2, 9]: 2.12±0.69 ml/min/gm; increase in dilator reserve in ABNORMAL segments ([2]; folate 30 mg vs. placebo): 83%; increase in peak MBF in ABNORMAL zones ([2]; folate 30 mg vs. placebo): 49%; effect on myocardial blood flow in NORMAL regions [2]: did not affect; effect on myocardial blood flow in NORMAL regions ([2]; listed as folic acid): did not change; patients in whom ABNORMAL zone MBF improved after folate ([2]; of 13 patients with abnormal zones): 10 patients; time to peak blood levels after administration [3]: 30 to 60 min

What does the source list for `CCCc1nn(C)c2c(=O)[nH]c(-c3cc(S(=O)(=O)N4CCN(C)CC4)ccc3OCC)nc12` [Sildenafil, 5-[2-ethoxy-5(-4-methylpiperazine-1-ylsulfonyl)phenyl]-1-methyl-3-propyl-1,6-dihydro-7H-pyrazolo[4,3-d]pyrimidin-7-one]?
Myocardial Blood Flow ([4]; Ado 140): 1.58 ± 0.55 ml/min/gm; Myocardial Blood Flow ([4]; Rest): 0.64 ± 0.20 ml/min/gm; effect on myocardial blood flow in abnormal zones ([4]; sildenafil 100 mg vs. placebo): improved
